The values that follow come from US4927835A, “Acylphenol derivatives, useful as anti-inflammatory agents and pain suppressants” (priority 1988, dated 1990).

Each structure is given as a SMILES string. Read-outs that look alike come from different tables or passages of the source.

Data set [1] can be described thus: Inhibitory action to carrageenin edema (right hind paw). In kind it is in vivo, male rats (SD strain). The following applies: for ED30: read-out: (1) ED30, carrageenin edema. As to the method:
Seven male rats (SD strain; 6 weeks of age) were used in a group. The test compound was administered per os and, after one hour, 0.1 ml of 0.5% λ-carrageenin solution was injected subcutaneously into the right hind paw. After three hours, the volume of the right hind paw was measured with a plethysmometer (UGO-BASILE). The degree of swelling was calculated by subtracting the volume before the carrageenin from the post injection volume.
A general note: The carrageenan paw model is a standard test of acute inflammation.

The nature of data set [2]: Inhibitory action to pain by heat stimulation (tail flick). In kind it is in vivo, male mice (ddY strain). The following applies: mouse, per os; for ED50: po, tail flick at 5, 15, 30, 45 and 60 minutes, read-out: (3) ED50, pain by heat stimulation. The procedure:
Ten male mice (ddY strain; five weeks of age) were used in a group. Radiated heat (250 watts; 4 cm distance from the heat source) was applied to the end of the tail of the mice. […] The test compound was administered per os and the time of appearance of the tail flick after 5, 15, 30, 45 and 60 minutes was measured. […] The maximum positive rate among the analgesically positive rates in each measuring time was defined as the analgesically positive rate at that dose and an ED50 value was calculated therefrom.

The nature of data set [3]: Inhibitory action to acetic acid writhing. In kind it is in vivo, male mice (ddY strain). The following applies: for ED50: po, read-out: (2) ED50, acetic acid writhing. The procedure:
Six male mice (ddY strain; five weeks of age) were used in a group. The test compound was administered per os and, after one hour, 0.6% acetic acid was intraperitoneally injected at the dose of 0.1 ml/10 g and the total writhings within 20 minutes thereafter were counted. By comparing the number of writhings of the drug-treated group to that of the control group, the inhibitory rate was obtained and an ED50 value was calculated.
(In general: In writhing tests, fewer writhes than in controls are read as antinociception.)

Data set [4] in a line: Stomach disorder (ulcer generation). Also noted: species or system male rats (SD strain). The following applies: in vivo, po, rat; for selectivity ratio: ratio UD50/ED50, read-out: Safety Region (UD50 /ED50). As to the method:
Ten male rats (SD strain; five weeks of age) were used in a group. The test compound dissolved or suspended in physiological saline solution was administered to them per os. The animals were than fasted for 17 hours, and 0.5 ml of 5% pontamine sky blue solution was injected intravenously and, after 10 minutes, they were sacrificed with ether. The stomach was removed from the animals, and about 8 ml of 5% formaline solution was injected into the stomach to provide a semifixing. The presence of the […] was checked using a stereoscopic microscope. Rats in which even one ulcer was observed was judged to be positive in ulcer generation and a UD50 value was calculated by a provit method.

Another data set is described as follows: Acute toxicity. Also noted: species or system male rats (SD strain). The settings on record: in vivo, po; rat, per os; 7 days; provit method; read-out: (5) LD50, acute toxicity. The procedure:
Test data showing the activity and superiority for compounds representative of those of the present invention is set forth below. In the tests, a representative compound of the present invention, namely 3-(1,1-Dimethylethyl)-4-hydroxy-5-[N-(2-hydroxyethyl)-N-methylaminomethyl]phenyl-2-thienyl ketone, the compound described in Example 4 (the "test compound"), was dissolved or suspended in 0.5% methylcellulose (MC) and administered as described.
Four male rats (SD strain; six weeks of age) were used in a group. The test compound was given per os and, after 7 days, the […] were monitored for life and an LD50 value was calculated by a provit method.

Data set [5] is described as follows: Analgesic, anti-inflammatory and anti-pyretic activity, summary statement. It is filed as in vivo. The following applies: from the data in Table 1.
The conditions of data set [6]: values given in literature; cited from earlier work.
The conditions of data set [7]: Agents and Actions, vol. 12, page 5, 1982; cited from earlier work.
Setting [8] is: rat, per os, carrageenin 1 hour after compound, paw volume after three hours.
Where [9] appears, read: mouse, per os, 0.6% acetic acid i.p. after one hour, writhings within 20 minutes.

For the compound `COc1ccc2c(c1)c(CC(=O)O)c(C)n2C(=O)c1ccc(Cl)cc1` [Indomethacin], the ED30 in data set [1] (Rattus norvegicus) was 0.8 mg/kg. The “(3) action on pain by heat stimulation (no ED50)” value in data set [2] (at 20 mg/kg) is given as “no action at 20 mg/kg”. Besides, the ED50 in data set [3] (Mus musculus) was determined as 2.1 mg/kg. Besides, the TD50 in data set [4] (per os, fasted 17 hours, provit method, read-out: (4) UD50, stomach ulcer generation) is 2.4 mg/kg. Besides, the selectivity ratio in data set [4] worked out at 3.

With `CN(CCO)Cc1cc(C(=O)c2cccs2)cc(C(C)(C)C)c1O` [Example 4, 3-(1,1-Dimethylethyl)-4-hydroxy-5-[N-(2-hydroxyethyl)-N-methylaminomethyl]phenyl 2-thienyl ketone], in the data set “Acute toxicity”, the LD50 at 168 h was 1000 mg/kg. Besides, in data set [1] (rat, per os), the “inhibitory action to carrageenin edema, in words” value is on record as “inhibitory action to carrageenin edema”. Also, the ED30 in data set [1] (setting [8]) was found to be 9.8 mg/kg. Also, in data set [2], the “analgesic activity, non-inflammatory pain (heat stimulation), compared with codeine” value was “analgesic activity as strong as codeine” and the ED50 stood at 47 mg/kg. Also, in data set [3] (mouse, per os), the “analgesic activity, inflammatory pain (acetic acid writhing), compared with codeine” value was “analgesic activity as strong as codeine”. In data set [3] (setting [9]), the ED50 was found to be 16.4 mg/kg. Moreover, in data set [4], the TD50 was determined as 146 mg/kg and the selectivity ratio worked out at 14.9. For the same compound, the “analgesic and anti-inflammatory activity, in words” value in data set [5] was “strong analgesic and anti-inflammatory activity”.

For the compound `CC(C)(C)c1cc(C(=O)c2cccs2)cc(C(C)(C)C)c1O` [Example R-830, 3,5-di-tert-butyl-4-hydroxy-phenyl 2-thienyl ketone], the ED30 in data set [1] (setting [8]) stood at 5.6 mg/kg. Besides, in data set [2] (at 500 mg/kg), the “(3) action on pain by heat stimulation (no ED50)” value was “no action at 500 mg/kg”. Moreover, in data set [3] (setting [9]), the ED50 is 22.4 mg/kg. In data set [4], the TD50 came out at 11.8 mg/kg and the selectivity ratio amounted to 2.1. In addition, the “(5) LD50, acute toxicity” value in data set [6] is on record as 1625 mg/kg. In addition, in data set [7], the “inhibitory action against carrageenin-induced edema, in words” value is “inhibitory action against carrageenin-induced edema”.

Turning to `O=C(Cn1c(=O)sc2ccc(Cl)cc21)N1CCN(CCO)CC1` [Thiaramide], the ED30 in data set [1] (setting [8]) was 112 mg/kg. Besides, the results for the ED50 in data set [2] and in data set [3] (setting [9]) were 108 mg/kg and 27.3 mg/kg, respectively. Besides, the TD50 in data set [4] stood at 278 mg/kg. Moreover, the selectivity ratio in data set [4] came out at 2.5. The “(5) LD50, acute toxicity” value in data set [6] is on record as 4700 mg/kg.

One may read the ED50 as the dose at which the effect has come halfway, by size or by number of responders. The term LD50 denotes the dose expected to kill half of the subjects tested.
